Measured values as given in ChEMBL document CHEMBL5584307, “Discovery of a Potent and Orally Bioavailable Xanthine Oxidase/Urate Transporter 1 Dual Inhibitor as a Potential Treatment for Hyperuricemia and Gout” (J Med Chem, 2024).

Legend:
Cytochrome P450 1A2 = molecular target: T1, Cytochrome P450 1A2 (Homo sapiens, UniProt P05177); assay: Induction of CYP1A2 in human hepatocytes at 50 uM incubated for 48 hrs with media containing compound renewal every 24 hrs followed by substrate addition measured after 30 mins by LC-MS/MS analysis; assay type: ADME, cell-based, Hepatocyte; conditions: 48.5 h
T1 sequence (P05177 whole entry): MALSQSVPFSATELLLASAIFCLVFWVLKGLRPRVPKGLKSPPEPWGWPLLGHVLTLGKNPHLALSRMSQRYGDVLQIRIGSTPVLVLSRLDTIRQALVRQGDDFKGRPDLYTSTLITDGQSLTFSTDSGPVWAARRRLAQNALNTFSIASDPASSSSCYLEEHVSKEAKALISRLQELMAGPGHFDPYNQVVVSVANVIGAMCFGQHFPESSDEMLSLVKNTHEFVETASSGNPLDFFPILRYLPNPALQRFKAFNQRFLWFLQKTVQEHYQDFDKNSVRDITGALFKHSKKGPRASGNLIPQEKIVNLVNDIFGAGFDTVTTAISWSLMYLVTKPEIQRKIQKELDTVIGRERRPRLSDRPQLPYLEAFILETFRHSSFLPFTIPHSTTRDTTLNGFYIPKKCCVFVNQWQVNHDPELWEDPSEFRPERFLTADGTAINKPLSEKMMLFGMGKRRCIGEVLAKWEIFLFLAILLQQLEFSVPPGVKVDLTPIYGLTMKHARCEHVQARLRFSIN

[1] = Toxicity in cynomolgous monkey administered daily for 28 days; design: species or system Macaca fascicularis; conditions: cynomolgus monkey, in vivo; time 28 day
[2] = Toxicity in cynomolgous monkey assessed as distended abdomen at 200 mg/kg/day for 28 days consecutively; assay type: organism-based, Macaca fascicularis; conditions: cynomolgus monkey, in vivo, 672 h, time 28 day
[3] = Genotoxicity in Salmonella typhimurium TA100 by Ames test; assay type: toxicity; conditions: salmonella enterica subsp. enterica serovar typhimurium
[4] = Toxicity in cynomolgous monkey assessed as flatus in intestines at 200 mg/kg/day for 28 days consecutively; assay type: organism-based, Macaca fascicularis; conditions: cynomolgus monkey, in vivo, 672 h, time 28 day
[5] = Toxicity in rat assessed as increase in ALP level at 120 mg/kg/day for 28 days; assay type: organism-based; conditions: in vivo, 672 h, time 28 day
[6] = AUC (0 to t) in female cynomolgous monkey at 30 mg/kg/day for 28 days; assay type: ADME, organism-based, Macaca fascicularis; conditions: cynomolgus monkey, in vivo, time 28 day
[7] = Half life in Tufted capuchin monkey at 100 mg/kg, po measured for 24 hrs by LC-MS/MS analysis; assay type: ADME, organism-based; conditions: sapajus apella, in vivo
[8] = Half life in Cynomolgous monkey at 5 mg/kg, po measured upto 24 hrs by LC-MS/MS analysis; assay type: ADME, organism-based, Macaca fascicularis; conditions: cynomolgus monkey, in vivo
[9] = AUC (last) in Tufted capuchin monkey at 30 mg/kg, po measured for 24 hrs by LC-MS/MS analysis; assay type: ADME, organism-based; conditions: sapajus apella, in vivo
[10] = AUC (last) in overnight-fasted Sprague-Dawley rat at 1 mg/kg, iv measured upto 24 hrs by LC-MS/MS analysis; assay type: ADME, organism-based; conditions: in vivo
[11] = Half life in Tufted capuchin monkey at 10 mg/kg, po measured for 24 hrs by LC-MS/MS analysis; assay type: ADME, organism-based; conditions: sapajus apella, in vivo
[12] = Toxicity in rat assessed as increase in salivation at 120 mg/kg/day for 28 days; assay type: organism-based; conditions: in vivo, 672 h, time 28 day
[13] = Clearance in overnight-fasted Sprague-Dawley rat at 1 mg/kg, iv measured upto 24 hrs by LC-MS/MS analysis; assay type: ADME, organism-based; conditions: in vivo
[14] = Genotoxicity in Salmonella typhimurium TA102 by Ames test; assay type: toxicity; conditions: salmonella enterica subsp. enterica serovar typhimurium
[15] = AUC (0 to t) in male rat at 60 mg/kg/day for 28 days; assay type: ADME, organism-based; conditions: in vivo, time 28 day
Sapajus apella = assay: Urate lowering effect in Tufted capuchin monkey assessed as urine xanthine level at 30 mg/kg/day, po qd for 3 days consecutively; assay type: functional; conditions: time 3 day
[16] = Oral bioavailability in overnight-fasted Sprague-Dawley rat at 5 mg/kg measured upto 24 hrs by LC-MS/MS analysis; assay type: ADME, organism-based; conditions: in vivo
[17] = Toxicity in cynomolgous monkey assessed as decrease in food consumption at 90 to 200 mg/kg/day for 28 days consecutively; assay type: organism-based, Macaca fascicularis; conditions: cynomolgus monkey, in vivo, 672 h; dose 90-200 mg/kg/day, time 28 day
[18] = Oral bioavailability in Beagle dog at 5 mg/kg measured upto 24 hrs by LC-MS/MS analysis; assay type: ADME, organism-based, Canis lupus familiaris; conditions: in vivo
[19] = Toxicity in cynomolgous monkey assessed as increase in fluid feces at 90 to 200 mg/kg/day for 28 days consecutively; assay type: organism-based, Macaca fascicularis; conditions: cynomolgus monkey, in vivo, 672 h; dose 90-200 mg/kg/day, time 28 day
[20] = AUC (0 to t) in male cynomolgous monkey at 30 mg/kg/day for 28 days; assay type: ADME, organism-based, Macaca fascicularis; conditions: cynomolgus monkey, in vivo, time 28 day
[21] = Tmax in Tufted capuchin monkey at 10 mg/kg, po measured for 24 hrs by LC-MS/MS analysis; assay type: ADME, organism-based; conditions: sapajus apella, in vivo
[22] = AUC (last) in Tufted capuchin monkey at 100 mg/kg, po measured for 24 hrs by LC-MS/MS analysis; assay type: ADME, organism-based; conditions: sapajus apella, in vivo
[23] = Stability in monkey liver microsomes assessed as half life at 1 uM measured upto 60 mins in presence of NADPH by LC-MS/MS analysis; assay type: ADME, Macaca mulatta, Microsome; conditions: rhesus monkey
[24] = Toxicity in cynomolgous monkey assessed as decrease in body weight at 90 to 200 mg/kg/day for 28 days consecutively; assay type: organism-based, Macaca fascicularis; conditions: cynomolgus monkey, in vivo, 672 h; dose 90-200 mg/kg/day, time 28 day

Compound: N#Cc1cc(-c2ccc(C(=O)O)c(O)c2)c2oc(F)cc2c1
- Activity (Cytochrome P450 1A2): < 20%
- NOAEL at 672 h [1]: 30 mg/kg/day
- Activity [2]: Toxic
- Activity [3]: Non-Toxic
- Activity [4]: Toxic
- Activity [5]: Toxic
- AUC(0-t) at 672 h [6]: 336 µg·h/mL
- half-life [7]: 3.21 h
- half-life [8]: 7.9 h
- AUC(0-t) at 24 h [9]: 31.6 µg·h/mL
- AUC(0-t) at 24 h [10]: 10.9 µg·h/mL
- half-life [11]: 1.52 h
- Activity [12]: Toxic
- clearance [13]: 1.51 mL/min/kg
- Activity [14]: Non-Toxic
- AUC(0-t) at 672 h [15]: 2250 µg·h/mL
- Activity (Sapajus apella): 29.26 µg·h/mL
- bioavailability [16]: 145%
- Activity [17]: Toxic
- bioavailability [18]: 69.9%
- Activity [19]: Toxic
- AUC(0-t) at 672 h [20]: 339 µg·h/mL
- Tmax [21]: 0.8 h
- AUC(0-t) at 24 h [22]: 302 µg·h/mL
- half-life at 1 µM [23]: 2.87 h
- Activity [24]: Toxic
